Excerpt: In accordance with yet another aspect of the present invention, there is provided a method for determining the solubility of said drugs, wherein the method comprises incremental addition of said drugs taken from stock to said solubility enhancer, shaking the resultant in an ultrasonic bath to obtain clear solution and determining the solubility.
The solutions of Isotretinoin were made by incremental addition technique, i.e. by adding portions of the drug from pre-weighed stock (Isotretinoin) to known volume of the alkanamide solution and shaking in an ultrasonic bath till the solution was clear. Thereafter the second weight was recorded & solubility was determined.
(§1) Thereafter the second weight was recorded & solubility was determined.
as §1

amount of drug solubilized in 1 ml of Hexanamide: 206 mg | amount of drug solubilized in 1 ml of Octanamide: 139.2 mg | solubility in Hexanamide: 20.6 % w/v | solubility in Octanamide: 13.92 % w/v
Compound: CC1=C(/C=C/C(C)=C/C=C/C(C)=C\C(=O)O)C(C)(C)CCC1 [Isotretinoin]

Source: patent US9186338B2, “Solubility enhancer and use thereof” (priority 2005, dated 2015)
